Test results: ChEMBL document CHEMBL2176906, “Diterpenoids isolated from Sideritis species protect astrocytes against oxidative stress via Nrf2” (J Nat Prod, 2012)
Activity calls are given as the source filed them. The calls are words filed in the database; no cut-off is given here.

Tested on: U373 MG
Assay: Induction of total GPx activity in human U373MG cells assessed as […] per mg protein preincubated at 10 uM for 24 hrs before H2O2 challenge by fluorimetric method (reference value: 58.5 +/- 5.1 nmol/min/mg protein)
Assay type: functional, U-373MG ATCC
Settings: not given

Structure (SMILES) | Activity [nmol/min]
C=CC(=C)CC[C@H]1[C@]2(C)CCC[C@](C)(CO)[C@H]2[C@H](O)C[C@]1(C)O [ANDALUSOL] | 82.4

Tested on: U373 MG
Assay: Induction of SOD activity in human U373MG cells assessed per mg protein preincubated at 5 uM for 24 hrs before H2O2 challenge by fluorimetric method (reference value: 14.2 +/- 3 UI/mg protein)
Assay type: functional, U-373MG ATCC
Settings: not given

Structure (SMILES) | Activity [IU]
C=CC(=C)CC[C@H]1[C@]2(C)CCC[C@](C)(CO)[C@H]2[C@H](O)C[C@]1(C)O [ANDALUSOL] | 24.7

Tested on: U373 MG
Assay: Inhibition of H2O2-induced oxidative stress in human U373MG cells assessed as GSSG level per mg protein at 10 uM by fluorimetric method (reference value: 9.2 +/- 0.9 nmol/mg protein)
Assay type: functional, U-373MG ATCC
Settings: not given

Structure (SMILES) | Activity [nmol]
C=CC(=C)CC[C@H]1[C@]2(C)CCC[C@](C)(CO)[C@H]2[C@H](O)C[C@]1(C)O [ANDALUSOL] | 6.8

Tested on: U373 MG
Assay: Induction of Glutathione reductase activity in human U373MG cells assessed as […] per mg protein preincubated at 10 uM for 24 hrs before H2O2 challenge by fluorimetric method (reference value: 9.3 +/- 2.2 nmol/min/mg protein)
Assay type: functional, U-373MG ATCC
Settings: not given

Structure (SMILES) | Activity [nmol/min]
C=CC(=C)CC[C@H]1[C@]2(C)CCC[C@](C)(CO)[C@H]2[C@H](O)C[C@]1(C)O [ANDALUSOL] | 19.7

Molecular target: T1, Nuclear factor erythroid 2-related factor 2 (Homo sapiens) (UniProt Q16236)
T1 sequence (whole entry): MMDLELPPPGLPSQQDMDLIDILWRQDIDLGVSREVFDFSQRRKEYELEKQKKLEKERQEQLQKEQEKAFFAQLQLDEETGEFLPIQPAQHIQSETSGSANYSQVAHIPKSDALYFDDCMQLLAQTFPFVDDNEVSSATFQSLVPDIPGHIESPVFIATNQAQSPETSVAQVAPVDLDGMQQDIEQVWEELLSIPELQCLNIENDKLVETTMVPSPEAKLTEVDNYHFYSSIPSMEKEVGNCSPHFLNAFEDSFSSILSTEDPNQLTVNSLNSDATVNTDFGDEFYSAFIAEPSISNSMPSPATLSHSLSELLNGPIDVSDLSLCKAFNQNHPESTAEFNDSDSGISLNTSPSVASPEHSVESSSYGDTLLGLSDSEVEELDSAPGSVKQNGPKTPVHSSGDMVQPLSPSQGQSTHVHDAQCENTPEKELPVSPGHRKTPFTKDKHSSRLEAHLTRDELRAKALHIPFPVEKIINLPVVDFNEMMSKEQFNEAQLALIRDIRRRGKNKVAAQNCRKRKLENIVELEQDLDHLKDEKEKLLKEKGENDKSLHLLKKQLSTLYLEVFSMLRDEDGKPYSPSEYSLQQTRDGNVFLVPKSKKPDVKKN
Assay: Induction of Nrf2-mediated CAT protein expression in H2O2-stimulated human U373MG cells preincubated at 10 uM for 24 hrs before H2O2 challenge by Western blot method
Assay type: cell-based
Settings: U-373MG ATCC

Structure (SMILES) | Activity
C=CC(=C)CC[C@H]1[C@]2(C)CCC[C@](C)(CO)[C@H]2[C@H](O)C[C@]1(C)O [ANDALUSOL] | Active

Tested on: U373 MG
Assay: Induction of CAT activity in human U373MG cells assessed per mg protein preincubated at 5 uM for 24 hrs before H2O2 challenge by fluorimetric method (reference value: 18.9 +/- 0.4 UI/mg protein)
Assay type: functional, U-373MG ATCC
Settings: not given

Structure (SMILES) | Activity [IU]
C=CC(=C)CC[C@H]1[C@]2(C)CCC[C@](C)(CO)[C@H]2[C@H](O)C[C@]1(C)O [ANDALUSOL] | 22.1

Tested on: U373 MG
Assay: Induction of HO-1 activity in human U373MG cells assessed as bilirubin production per mg protein preincubated at 10 uM for 24 hrs before H2O2 challenge by fluorimetric method (reference value: 19.6 +/-3.5 pmol/hr/mg protein)
Assay type: functional, U-373MG ATCC
Settings: not given

Structure (SMILES) | Activity [pmol/h]
C=CC(=C)CC[C@H]1[C@]2(C)CCC[C@](C)(CO)[C@H]2[C@H](O)C[C@]1(C)O [ANDALUSOL] | 33.6

Molecular target: T1, Nuclear factor erythroid 2-related factor 2 (Homo sapiens)
Assay: Induction of Nrf2-mediated SOD protein expression in H2O2-stimulated human U373MG cells preincubated at 10 uM for 24 hrs before H2O2 challenge by Western blot method
Assay type: cell-based
Settings: U-373MG ATCC

Structure (SMILES) | Activity
C=CC(=C)CC[C@H]1[C@]2(C)CCC[C@](C)(CO)[C@H]2[C@H](O)C[C@]1(C)O [ANDALUSOL] | Active

Tested on: U373 MG
Assay: Inhibition of H2O2-induced oxidative stress in human U373MG cells assessed as GSH level per mg protein at 5 uM by fluorimetric method (reference value: 17.1 +/- 1.7 nmol/mg protein)
Assay type: functional, U-373MG ATCC
Settings: not given

Structure (SMILES) | Activity [nmol]
C=CC(=C)CC[C@H]1[C@]2(C)CCC[C@](C)(CO)[C@H]2[C@H](O)C[C@]1(C)O [ANDALUSOL] | 36.3

Tested on: U373 MG
Assay: Inhibition of H2O2-induced oxidative stress in human U373MG cells assessed as GSH/GSSG ratio at 5 uM (reference value: 1.8 +/- 0.1 )
Assay type: functional, U-373MG ATCC
Settings: not given

Structure (SMILES) | Ratio
C=CC(=C)CC[C@H]1[C@]2(C)CCC[C@](C)(CO)[C@H]2[C@H](O)C[C@]1(C)O [ANDALUSOL] | 5.1

Tested on: U373 MG
Assay: Inhibition of H2O2-induced oxidative stress in human U373MG cells assessed as GSSG level per mg protein at 5 uM by fluorimetric method (reference value: 9.2 +/- 0.9 nmol/mg protein)
Assay type: functional, U-373MG ATCC
Settings: not given

Structure (SMILES) | Activity [nmol]
C=CC(=C)CC[C@H]1[C@]2(C)CCC[C@](C)(CO)[C@H]2[C@H](O)C[C@]1(C)O [ANDALUSOL] | 7

Tested on: U373 MG
Assay: Inhibition of AAPH-induced oxidative stress in human U373MG cells assessed as peroxy radical scavenging activity at 10 uM by ORAC assay
Assay type: functional, cell-based
Settings: U-373MG ATCC

Structure (SMILES) | Activity
C=CC(=C)CC[C@H]1[C@]2(C)CCC[C@](C)(CO)[C@H]2[C@H](O)C[C@]1(C)O [ANDALUSOL] | inactive

Tested on: U-373MG ATCC
Assay: Antioxidant activity in human U373MG cells assessed as reduction in H2O2-induced morphological changes preincubated at 5 uM for 24 hrs before H2O2 challenge by phase-contrast microscopy
Assay type: functional, cell-based
Settings: not given

Structure (SMILES) | Activity
C=CC(=C)CC[C@H]1[C@]2(C)CCC[C@](C)(CO)[C@H]2[C@H](O)C[C@]1(C)O [ANDALUSOL] | Active

Molecular target: T1, Nuclear factor erythroid 2-related factor 2 (Homo sapiens)
Assay: Induction of Nrf2-mediated GPx protein expression in H2O2-stimulated human U373MG cells preincubated at 5 uM for 24 hrs before H2O2 challenge by Western blot method
Assay type: cell-based
Settings: U-373MG ATCC

Structure (SMILES) | Activity
C=CC(=C)CC[C@H]1[C@]2(C)CCC[C@](C)(CO)[C@H]2[C@H](O)C[C@]1(C)O [ANDALUSOL] | Active

Molecular target: T1, Nuclear factor erythroid 2-related factor 2 (Homo sapiens)
Assay: Induction of Nrf2-mediated GPx protein expression in H2O2-stimulated human U373MG cells preincubated at 10 uM for 24 hrs before H2O2 challenge by Western blot method
Assay type: cell-based
Settings: U-373MG ATCC

Structure (SMILES) | Activity
C=CC(=C)CC[C@H]1[C@]2(C)CCC[C@](C)(CO)[C@H]2[C@H](O)C[C@]1(C)O [ANDALUSOL] | Active

Tested on: U373 MG
Assay: Inhibition of H2O2-induced oxidative stress in human U373MG cells assessed as GSH level per mg protein at 10 uM by fluorimetric method (reference value: 17.1 +/- 1.7 nmol/mg protein)
Assay type: functional, U-373MG ATCC
Settings: not given

Structure (SMILES) | Activity [nmol]
C=CC(=C)CC[C@H]1[C@]2(C)CCC[C@](C)(CO)[C@H]2[C@H](O)C[C@]1(C)O [ANDALUSOL] | 39.8

Tested on: U373 MG
Assay: Induction of selenium-dependent GPx activity in human U373MG cells assessed as […] per mg protein preincubated at 5 uM for 24 hrs before H2O2 challenge by fluorimetric method (reference value: 14.7 +/- 2.9 nmol/min/mg protein)
Assay type: functional, U-373MG ATCC
Settings: not given

Structure (SMILES) | Activity [nmol/min]
C=CC(=C)CC[C@H]1[C@]2(C)CCC[C@](C)(CO)[C@H]2[C@H](O)C[C@]1(C)O [ANDALUSOL] | 23.9

Tested on: U373 MG
Assay: Induction of Nrf2 nuclear protein expression in H2O2-stimulated human U373MG cells preincubated at 10 uM for 24 hrs before H2O2 challenge by Western blot method
Assay type: functional, cell-based
Settings: U-373MG ATCC

Structure (SMILES) | Activity
C=CC(=C)CC[C@H]1[C@]2(C)CCC[C@](C)(CO)[C@H]2[C@H](O)C[C@]1(C)O [ANDALUSOL] | Active

Tested on: U373 MG
Assay: Induction of Glutathione reductase activity in human U373MG cells assessed as […] per mg protein preincubated at 5 uM for 24 hrs before H2O2 challenge by fluorimetric method (reference value: 9.3 +/- 2.2 nmol/min/mg protein)
Assay type: functional, U-373MG ATCC
Settings: not given

Structure (SMILES) | Activity [nmol/min]
C=CC(=C)CC[C@H]1[C@]2(C)CCC[C@](C)(CO)[C@H]2[C@H](O)C[C@]1(C)O [ANDALUSOL] | 19.1

Molecular target: T1, Nuclear factor erythroid 2-related factor 2 (Homo sapiens)
Assay: Induction of Nrf2-mediated CAT protein expression in H2O2-stimulated human U373MG cells preincubated at 5 uM for 24 hrs before H2O2 challenge by Western blot method
Assay type: cell-based
Settings: U-373MG ATCC

Structure (SMILES) | Activity
C=CC(=C)CC[C@H]1[C@]2(C)CCC[C@](C)(CO)[C@H]2[C@H](O)C[C@]1(C)O [ANDALUSOL] | Active

Tested on: U373 MG
Assay: Induction of ROS production in human U373MG cells at 5 uM after 24 hrs by DCFH-DA assay
Assay type: functional, cell-based
Settings: U-373MG ATCC

Structure (SMILES) | Activity
C=CC(=C)CC[C@H]1[C@]2(C)CCC[C@](C)(CO)[C@H]2[C@H](O)C[C@]1(C)O [ANDALUSOL] | inactive

Tested on: U373 MG
Assay: Induction of selenium-dependent GPx activity in human U373MG cells assessed as […] per mg protein preincubated at 10 uM for 24 hrs before H2O2 challenge by fluorimetric method (reference value: 14.7 +/- 2.9 nmol/min/mg protein)
Assay type: functional, U-373MG ATCC
Settings: not given

Structure (SMILES) | Activity [nmol/min]
C=CC(=C)CC[C@H]1[C@]2(C)CCC[C@](C)(CO)[C@H]2[C@H](O)C[C@]1(C)O [ANDALUSOL] | 29.9

Tested on: not listed separately
Assay: Cytotoxicity against human U373MG cells assessed as LDH release at 1 to 10 uM after 24 hrs by LDH assay
Assay type: cell-based
Settings: u-373mg atcc

Structure (SMILES) | Activity [%]
C=CC(=C)CC[C@H]1[C@]2(C)CCC[C@](C)(CO)[C@H]2[C@H](O)C[C@]1(C)O [ANDALUSOL] | < 10

Tested on: not listed separately
Assay: Cytotoxicity against human U373MG cells assessed as dye reduction at 1 to 10 uM after 24 hrs by MTT assay
Assay type: cell-based, U-373MG ATCC
Settings: read-out: Activity

Structure (SMILES) | viability at 24 h, up to 10 µM [%]
C=CC(=C)CC[C@H]1[C@]2(C)CCC[C@](C)(CO)[C@H]2[C@H](O)C[C@]1(C)O [ANDALUSOL] | 90

Molecular target: T1, Nuclear factor erythroid 2-related factor 2 (Homo sapiens)
Assay: Induction of Nrf2-mediated SOD protein expression in H2O2-stimulated human U373MG cells preincubated at 5 uM for 24 hrs before H2O2 challenge by Western blot method
Assay type: cell-based
Settings: U-373MG ATCC

Structure (SMILES) | Activity
C=CC(=C)CC[C@H]1[C@]2(C)CCC[C@](C)(CO)[C@H]2[C@H](O)C[C@]1(C)O [ANDALUSOL] | Active

Tested on: U373 MG
Assay: Inhibition of H2O2-induced oxidative stress in human U373MG cells assessed as GSH/GSSG ratio at 10 uM (reference value: 1.8 +/- 0.1 )
Assay type: functional, U-373MG ATCC
Settings: not given

Structure (SMILES) | Ratio
C=CC(=C)CC[C@H]1[C@]2(C)CCC[C@](C)(CO)[C@H]2[C@H](O)C[C@]1(C)O [ANDALUSOL] | 5.7

Tested on: U373 MG
Assay: Induction of ROS production in human U373MG cells at 10 uM after 24 hrs by DCFH-DA assay
Assay type: functional, cell-based
Settings: U-373MG ATCC

Structure (SMILES) | Activity
C=CC(=C)CC[C@H]1[C@]2(C)CCC[C@](C)(CO)[C@H]2[C@H](O)C[C@]1(C)O [ANDALUSOL] | inactive
